T1: GLUT1 (Mus musculus, UniProt P17809)
T1 construct: A band indicating the expression of GLUT-1 was confirmed in any of TM-BBB1, TM-BBB2, TM-BBB3, TM-BBB4 and TM-BBB5; endogenous in cells; host or cells: TM-BBB1 to TM-BBB5, conditionally immortalised mouse brain capillary endothelial cell lines (SV40tsA58 large T transgenic mice)
T1 sequence (P17809 1-492): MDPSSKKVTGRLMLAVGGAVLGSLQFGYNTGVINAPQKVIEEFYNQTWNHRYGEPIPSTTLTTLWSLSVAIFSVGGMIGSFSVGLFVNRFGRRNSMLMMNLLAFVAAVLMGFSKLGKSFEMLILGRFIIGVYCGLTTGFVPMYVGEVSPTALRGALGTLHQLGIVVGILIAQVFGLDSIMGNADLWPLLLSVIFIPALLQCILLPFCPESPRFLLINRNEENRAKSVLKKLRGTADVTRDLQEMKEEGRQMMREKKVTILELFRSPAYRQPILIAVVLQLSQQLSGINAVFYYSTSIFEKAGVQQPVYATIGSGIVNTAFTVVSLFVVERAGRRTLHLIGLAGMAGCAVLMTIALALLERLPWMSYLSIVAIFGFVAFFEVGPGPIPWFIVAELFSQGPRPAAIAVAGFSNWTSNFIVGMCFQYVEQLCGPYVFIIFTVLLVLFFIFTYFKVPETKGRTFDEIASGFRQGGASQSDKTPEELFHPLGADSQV

B1: GLUT1 (Mus musculus) (protein)
chain: T1 sequence (P17809 1-492)
notes: A band indicating the expression of GLUT-1 was confirmed in any of TM-BBB1, TM-BBB2, TM-BBB3, TM-BBB4 and TM-BBB5; endogenous in cells; host or cells: TM-BBB1 to TM-BBB5, conditionally immortalised mouse brain capillary endothelial cell lines (SV40tsA58 large T transgenic mice)

Tests used:
[1] = target: T1, GLUT1; experiment: Incorporation of 3-O-methyl-D-glucose (3-OMG) into brain capillary endothelial cell lines TM-BBB (glucose transfer ability); assay type: cell-based; settings: incorporation of [^3H]3-OMG into TM-BBB cell lines, uptake buffer 37°C, 20 seconds
Procedure: (§1) Each of TM-BBB's was plated onto a 24-well cell culture plate at a density of 3×10^5 cells/well/mℓ medium and cultured in a CO2 incubator at 33°C for 24 hours to make the cells confluent. The incorporation of 3-OMG was measured in the following manner. […] Ten seconds later, the uptake buffer was removed, and the cells were washed with the uptake buffer at 4°C. Subsequently, the uptake buffer was removed after 20 seconds, 30 seconds, 1 minute, or 10 minutes, and the cells were treated in the same manner. […] Twenty seconds later, the uptake buffer was removed, and the cells were washed with the uptake buffer at 4°C. Then, the cells were lyzed overnight with 1 mℓ PBS containing 1% Triton X-100 and then measured for radioactivity in a liquid scintillation counter. […] Pharmacobio-Dyn, 4: 879-885 (1981)] using a plot formula (V = Vmax x [S]/(Km + [S]); […]

[2] = system: L-glutamic acid transporter; experiment: Incorporation of [^3H]L-glutamic acid into astrocyte cell lines TR-AST (glutamic acid transport ability); assay type: cell-based, rat; settings: for incorporation of [^3H]L-Glu, expressed in % relative to the control: 1 mM of the inhibitor, control = 100±5; for inhibition of incorporation of [^3H]L-Glu (in words): other substrates of the transporter
Procedure: The glutamic acid transport ability of the cell lines obtained in Example 4, that is, TR-AST32, TR-AST811, TR-AST912, TR-AST932, TR-AST943 was examined by incorporation of [^3H]L-glutamic acid ([^3H]L-Glu). Each TR-AST's was plated onto a 24-well cell culture plate at a density of 2×10^5 cells/well and cultured in a CO2 incubator at 33°C to make the cells confluent. The incorporation of [^3H]L-Glu was measured in the following manner. First, the medium was suctioned, and the cells were washed with an uptake buffer at 37°C, and 0.2 mℓ uptake buffer containing 46.3 kBq/well [^3H]L-Glu and 9.25 kBq/mℓ [^14C]inulin at 37°C was added, and the tracer solution was removed after 2, 5, 10 or 30 minutes, and the cells were washed 3 times with 1 mℓ uptake buffer at 4°C. To the cells, 0.75 mℓ of 1% Triton X-100 was added, and the cells were allowed to stand overnight so that they were lyzed and then the lysate was measured for radioactivity in a liquid scintillation counter.
The Km and Vmax for incorporation of […] were analyzed using a non-linear minimum square program [Yamaoka, K. et al., J. Pharmacobio-Dyn, 4, 879-885 (1981)] using a plot formula (V = Vmax × [S]/(Km + [S]); Vmax is a maximum rate constant, Km is a Michaelis constant, and [S] is a substrate concentration) for the rate of incorporation of L-Glu. […]

[3] = substrate: CO[C@@H]([C@H](O)[C@H](O)CO)[C@@H](O)C=O; experiment: Incorporation of 3-O-methyl-D-glucose (3-OMG) into brain capillary endothelial cell lines TM-BBB (glucose transfer ability); assay type: cell-based, mouse; settings: other: incorporation of [^3H]3-OMG into TM-BBB cell lines, uptake buffer 37°C, 20 seconds, 0.5-50 mM unlabelled 3-OMG, pH 7.4
Procedure: as §1

Molecule	incorporation of [^3H]L-Glu, expressed in % relative to the control [2] [%]	inhibition of incorporation of [^3H]L-Glu (in words) [2]	also measured
CO[C@@H]([C@H](O)[C@H](O)CO)[C@@H](O)C=O [3-OMG, 3-O-methyl-D-glucose]	–	–	maximum incorporation rate constant (Vmax) [1]: 44 nmol/min/mg protein
N[C@H](CC(=O)O)C(=O)O [D-Asp, D-aspartic acid]	67±6	significantly inhibited	–
N[C@@H](CC(=O)O)C(=O)O [L-Asp, L-aspartic acid]	57±2	significantly inhibited	–
N[C@@H](CCC(=O)O)C(=O)O [L-Glu, L-glutamic acid]	8.3±1.5	–	maximum incorporation rate constant (Vmax) ([2]; incorporation of [^3H]L-Glu into TR-AST cell lines, 37°C): 1.8 nmol/min/mg protein; Km ([2]; incorporation of [^3H]L-Glu into TR-AST cell lines, 37°C, read-out: Michaelis constant (Km)): 96 µM
B1	–	–	Km [3]: 6600 µM
